# According to PubChem BioAssay AID180 (DTP/NCI, 2004):
# “And” between values parts separate entries of the source, which are not always exact repeats. Identical values can stand only once.
# Test system: BDF1 mice, Adenocarcinoma 755 s.c., tumor weight T/C
# Assay: NCI In Vivo Anticancer Drug Screen. Data for tumor model Adenocarcinoma 755 (subcutaneous) in B6D2F1 (BDF1) mice
# Conditions: endpoint: mean tumor weight, schedule: Q01DX011 (ip), higher = larger tumour
# Outline: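 Tumor-bearing mice receive test compound while controls get vehicle alone. Antitumor effect is scored from survival or tumor dimensions as a T/C quotient.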
# [1] = dose: 31.0 mg/kg/injection, vehicle: methylcellulose (MC)
# [2] = dose: 62.0 mg/kg/injection, vehicle: methylcellulose (MC)
# [3] = dose: 125.0 mg/kg/injection, vehicle: methylcellulose (MC)
# [4] = dose: 250.0 mg/kg/injection, vehicle: methylcellulose (MC)
compound,measurement,setting,value
CCCCCn1cnc2c(=S)nc[nH]c21,T/C,"dose: 31.0 mg/kg/injection, vehicle: carboxymethylcellulose (CMC)",94 % of control
same,T/C,"dose: 62.0 mg/kg/injection, vehicle: carboxymethylcellulose (CMC)",78 % of control
same,T/C,"dose: 125.0 mg/kg/injection, vehicle: carboxymethylcellulose (CMC)",43 % of control
same,T/C,"dose: 250.0 mg/kg/injection, vehicle: carboxymethylcellulose (CMC)",10 % of control
same,T/C,"dose: 500.0 mg/kg/injection, vehicle: carboxymethylcellulose (CMC)",6 % of control
CC(=O)N1CCCCC1,T/C,"dose: 12.5 mg/kg/injection, vehicle: other",92 % of control
same,T/C,"dose: 25.0 mg/kg/injection, vehicle: other",69 % of control
same,T/C,"dose: 50.0 mg/kg/injection, vehicle: other",73 % of control
same,T/C,"dose: 100.0 mg/kg/injection, vehicle: other",85 % of control
O=C(CCBr)N1CCC(CCC2CCN(C(=O)CCBr)CC2)CC1,T/C,"dose: 25.0 mg/kg/injection, vehicle: methylcellulose (MC)",94 % of control
same,T/C,"dose: 75.0 mg/kg/injection, vehicle: methylcellulose (MC)",68 % of control
same,T/C,"dose: 225.0 mg/kg/injection, vehicle: methylcellulose (MC)",43 % of control
Cc1cnc(SCc2ccc(Cl)cc2)nc1Nc1ccc(Cl)cc1Cl,T/C,[1],97 % of control
same,T/C,[2],69 % of control
same,T/C,[3],65 % of control
same,T/C,[4],65 % of control
CCc1c(Cl)nc(N)nc1Nc1ccc(Br)cc1,T/C,[1],118 % of control
same,T/C,[2],105 % of control
same,T/C,[3],106 % of control
same,T/C,[4],116 % of control
CC[C@]1(O)C[C@H]2CN(CCc3c([nH]c4ccccc34)[C@@](C(=O)OC)(c3cc4c(cc3OC)N(C)[C@H]3[C@@](O)(C(=O)OC)[C@H](OC(C)=O)[C@]5(CC)C=CCN6CC[C@]43[C@@H]65)C2)C1,T/C,"dose: 0.05 mg/kg/injection, vehicle: carboxymethylcellulose (CMC)",68 % of control and 76 % of control
same,T/C,"dose: 0.1 mg/kg/injection, vehicle: carboxymethylcellulose (CMC)",94 % of control and 87 % of control
O=c1[nH]cnc2c1ncn2CCO,T/C,"dose: 43.75 mg/kg/injection, vehicle: methylcellulose (MC)",40 % of control
same,T/C,"dose: 87.5 mg/kg/injection, vehicle: methylcellulose (MC)",100 % of control
same,T/C,"dose: 175.0 mg/kg/injection, vehicle: methylcellulose (MC)",123 % of control
same,T/C,"dose: 350.0 mg/kg/injection, vehicle: methylcellulose (MC)",99 % of control
C[C@@H]1CN(C(=O)CCBr)[C@@H](C)CN1C(=O)CCBr,T/C,"dose: 113.0 mg/kg/injection, vehicle: carboxymethylcellulose (CMC)",50 % of control
same,T/C,"dose: 225.0 mg/kg/injection, vehicle: carboxymethylcellulose (CMC)",48 % of control
same,T/C,"dose: 450.0 mg/kg/injection, vehicle: carboxymethylcellulose (CMC)",57 % of control
Cn1c(=O)c2c(nc(N/N=C/C(Cl)Cl)n2C)n(C)c1=O,T/C,"dose: 2.8 mg/kg/injection, vehicle: methylcellulose (MC)",79 % of control
same,T/C,"dose: 8.3 mg/kg/injection, vehicle: methylcellulose (MC)",71 % of control
Nc1nc(SCc2ccccc2Cl)c2ncn(C3OC(CO)C(O)C3O)c2n1 (configuration not stated),T/C,"dose: 0.85 mg/kg/injection, vehicle: methylcellulose (MC)",69 % of control
same,T/C,"dose: 1.7 mg/kg/injection, vehicle: methylcellulose (MC)",22 % of control
same,T/C,"dose: 3.4 mg/kg/injection, vehicle: methylcellulose (MC)",26 % of control
same,T/C,"dose: 6.75 mg/kg/injection, vehicle: methylcellulose (MC)",4 % of control
O=S(=O)(OCCCl)OCCCl,T/C,"dose: 12.5 mg/kg/injection, vehicle: olive oil, sesame oil, peanut oil",109 % of control
same,T/C,"dose: 25.0 mg/kg/injection, vehicle: olive oil, sesame oil, peanut oil",86 % of control
